The subject of data set [1] is P. falciparum 3D7 parasites. Nature of the data set: P. falciparum 3D7 asexual stage LDH assay (72 h). The format is cell-based, Plasmodium falciparum. The note with it: for EC50: Plasmodium falciparum, 3D7, 72 h, means and SDs, three or more experiments; for fold decrease in Pf 3D7 activity relative to 17: ratio of EC50 to compound 17. Here is the method: To establish the SAR, synthesized analogs were assessed against the asexual stage parasite (72 h) using LDH as a proxy for parasite growth inhibition. Cytotoxicity was monitored against the human HepG2 cell line using Cell TitreGlo as a metabolic marker for cell growth.
P. falciparum 3D7 Asexual Stage LDH Assay. This is a platform assay is routinely undertaken at the Walter and Eliza Hall Institute and details on the protocol has been previously published. Briefly, 10-point dilution series of the compounds were prepared in 384 well assay plates using an Echo555 (Labcyte). Appropriate volumes of 10 mM compound stocks were transferred into the assay plates such that the starting concentration was 1 μM, with a 1 in 3-fold dilution series. All wells were backfilled with DMSO to 40 nL such that this remained constant (0.1 % DMSO). The positive growth control was 0.1 % DMSO and the negative growth control was 100 nM chloroquine. The parasite inoculum (40 μL) was dispensed into plates containing compounds using a Multidrop Combi dispenser (Thermo Scientific). […] Following 72 h growth, plates were sealed with parafilm and frozen at −80 °C overnight. Plates were thawed at room temperature for at least 4 h prior to LDH activity being measured. […] Plates were shaken to ensure mixing and absorbance at 650 nm was measured in an EnVision (PerkinElmer) plate reader after 30 min of incubation at room temperature. […] The equation used is sigmoidal dose response (variable slope), Y = bottom + (top − bottom)/(1 + 10((logEC50 − X) × Hill Slope)).

A short description of data set [2]: Human HepG2 growth inhibition assay (Cell TitreGlo, 48 h). The note with it: human, HepG2 cells, HepG2 cell growth inhibition over 48 h. The format is cell-based. Here is the method: To establish the SAR, synthesized analogs were assessed against the asexual stage parasite (72 h) using LDH as a proxy for parasite growth inhibition. Cytotoxicity was monitored against the human HepG2 cell line using Cell TitreGlo as a metabolic marker for cell growth. Cyt b inhibitors typically have high lipophilicity, and so calculated physicochemical properties were determined, while in vitro ADME was also collected on representative analogs to gauge their suitability for efficacy studies in a 4-day P. berghei model.
Human HepG2 Growth Inhibition Assay. This is a routine assay undertaken at the Walter and Eliza Hall Institute and the method has been previously published. HepG2 cells were cultured in Dulbeccos modified eagles medium (DMEM) supplemented with 10 % fetal calf serum (FCS), in a humidified incubator at 37 °C and 5 % CO2. Assay plates (Greiner #781098, 384 well, white, tissue culture treated) were prepared by transferring appropriate volumes of 10 mM compound stocks using an Echo555 (Labcyte) such that the starting concentration was 50 μM, with a 1:2-fold dilution series. All wells were backfilled with DMSO to […] such that this remained constant (0.5 % DMSO). The positive growth control was 0.5 % DMSO and the negative growth control was 10 μM Bortezomib. HepG2 cells were seeded with 1000 cells in 50 μL DMEM with 10 % FCS into each well of the assay plates using a Multidrop Combi dispenser (Thermo Scientific). Plates were incubated at 37 °C and 5 % CO2 for 48 h. Cytotoxicity was determined using Cell Titer Glo (Promega) and calculated as a percentage using DMSO as the positive growth control and 10 μM Bortezomib as a negative growth control. EC50 values were calculated by Dotmatics 5.3 and Spotfire 7.11.1 software using a nonlinear regression four-parameter fit analysis. The equation used is sigmoidal dose response (variable slope), Y = bottom + (top − bottom)/(1 + 10((logEC50 − X) × Hill Slope)).

[3] abbreviates: LDH activity of P. falciparum 3D7 parasites over 72 h, read-out: Pf 3D7 EC50 (SD).

From publication PMC11609934, “Exploration and characterization of the antimalarial activity of cyclopropyl carboxamides that target the mitochondrial protein, cytochrome b” (European Journal of Medicinal Chemistry, 2024) come the findings set out here.

Where two headings read alike, the source gives them in different places.

By EC50 is commonly meant the concentration giving half of the maximal effect. On to `O=C(NC1CC1)c1ccc(CNCc2ccccc2)cc1` [Compound 18, 4-((Benzylamino)methyl)-N-cyclopropylbenzamide], for which the EC50 in data set [1] (setting [3]) was greater than 10 µM.
The CC50 is the concentration giving 50% cytotoxicity. High values mean better tolerance by the cells, low ones harm at low concentration. In data set [2], `CN(Cc1ccccc1)Cc1ccc(C(=O)NC2CC2)cc1` [Compound 19, 4-((Benzyl(methyl)amino)methyl)-N-cyclopropylbenzamide] registered a CC50 at 48 h greater than 40 µM. Further, in data set [1] (setting [3]), the EC50 stood at 2.6 µM. Moreover, the “fold decrease in Pf 3D7 activity relative to 17” value in data set [1] is 20 fold.
The corresponding values for `CCN(Cc1ccccc1)Cc1ccc(C(=O)NC2CC2)cc1` [Compound 20, 4-((Benzyl(ethyl)amino)methyl)-N-cyclopropylbenzamide] are greater than 40 µM, 0.7 µM and 4 fold.
`CC(C)(C)N(Cc1ccccc1)Cc1ccc(C(=O)NC2CC2)cc1` [Compound 23, 4-((Benzyl(tert-butyl)amino)methyl)-N-cyclopropylbenzamide]: in data set [2], the half-maximal cytotoxic concentration (CC50) at 48 h was greater than 40 µM. Besides, the EC50 in data set [1] (setting [3]) amounted to 0.63 µM.
The corresponding values for `CCC(C)N(Cc1ccccc1)Cc1ccc(C(=O)NC2CC2)cc1` (centres unmarked) [Compound 24, 4-((Benzyl(sec-butyl)amino)methyl)-N-cyclopropylbenzamide] are greater than 40 µM and 0.21 µM.
In data set [2], `O=C(NC1CC1)c1ccc(CN(Cc2ccccc2)Cc2ccccc2)cc1` [Compound 27, N-Cyclopropyl-4-((dibenzylamino)methyl)benzamide] showed a cytotoxic concentration (CC50) at 48 h greater than 40 µM.
Regarding `NC(=O)c1ccc(CN(Cc2ccc(Cl)cc2Cl)C2CC2)cc1` [Compound 29], the EC50 in data set [1] (setting [3]) was greater than 10 µM.
For `O=C(NCC(F)(F)F)c1ccc(CN(Cc2ccc(Cl)cc2Cl)C2CC2)cc1` [Compound 34, 4-((Cyclopropyl(2,4-dichlorobenzyl)amino)methyl)-N-(2,2,2-trifluoroethyl)benzamide], the half-maximal effective concentration (EC50) in data set [1] (setting [3]) was greater than 10 µM.
With `NCCNC(=O)c1ccc(CN(Cc2ccc(Cl)cc2Cl)C2CC2)cc1` [Compound 36, 2-(4-((Cyclopropyl(2,4-dichlorobenzyl)amino)methyl)benzamido)ethan-1-aminium 2,2,2-trifluoroacetate], the EC50 in data set [1] (setting [3]) is greater than 10 µM.
The molecule `O=C(Nc1ccccc1)c1ccc(CN(Cc2ccc(Cl)cc2Cl)C2CC2)cc1` [Compound 40] gave a 50% cytotoxic concentration (CC50) at 48 h in data set [2] greater than 40 µM.
For `CC(=O)Nc1cccc(CN(Cc2ccc(C(=O)NC3CC3)cc2)C2CC2)c1` [Compound 66, 4-(((3-Acetamidobenzyl) (cyclopropyl)amino)methyl)-N-cyclopropylbenzamide], the EC50 in data set [1] (setting [3]) was greater than 10 µM.
Same read-out and setting: the result for `CC(=O)Nc1ccc(CN(Cc2ccc(C(=O)NC3CC3)cc2)C2CC2)cc1` [Compound 67, 4-(((4-Acetamidobenzyl) (cyclopropyl)amino)methyl)-N-cyclopropylbenzamide] reads greater than 10 µM; that for `O=C(NC1CC1)c1ccc(CN(Cc2cccnc2)C2CC2)cc1` [Compound 86], greater than 10 µM.
`O=C(NC1CC1)c1ccc(CNC2CC2)cc1` [Compound 88, N-cyclopropyl-4-((cyclopropylamino)methyl)benzamide]: the concentration for a half-maximal effect (EC50) in data set [1] (setting [3]) was greater than 10 µM.
Same read-out and setting: for `CN(Cc1ccc(C(=O)NC2CC2)cc1)C1CC1` [Compound 89] the value was greater than 10 µM.
Regarding `CC(C)CN(Cc1ccc(C(=O)NC2CC2)cc1)C1CC1` [Compound 92], the EC50 in data set [1] (read-out: Pf 3D7 EC50 (SD), LDH activity of P. falciparum 3D7 parasites over 72 h) came out at 0.54 µM. In addition, in data set [1], the “fold decrease in Pf 3D7 activity relative to 17” value was “approximately 4 fold”.
With `O=C(NC1CC1)c1ccc(CN(C(=O)c2ccccc2)C2CC2)cc1` [Compound 99, N-Cyclopropyl-N-(4-(cyclopropylcarbamoyl)benzyl)benzamide], in data set [1] (setting [3]), the concentration giving a half-maximal response (EC50) is greater than 10 µM.
For the molecule `O=C(NC1CC1)c1ccc(C(=O)N(Cc2ccccc2)C2CC2)cc1` [Compound 100, N [4]-Benzyl-N^1,N [4]-dicyclopropyl-terephthalamide], the EC50 in data set [1] (setting [3]) was greater than 10 µM.
The same measure, in the same setting: for `O=C(NC1CC1)c1ncc(CN(Cc2ccccc2)C2CC2)s1` [Compound 106, 5-((Benzyl(cyclopropyl)amino)methyl)-N-cyclopropylthiazole-2-carboxamide] the value was greater than 10 µM.
